Experimental data reported in patent EP1276895B1, “METHOD FOR THE IDENTIFICATION OF ACTIVE SITE PROTEASE INACTIVATORS” (THE UNIVERSITY OF GEORGIA RESEARCH FOUNDATION, INC., priority 2000, dated 2001).
Residues, ends and D or L forms follow the SMILES beside them. *: point of attachment. AFC = O=c1cc(C(F)(F)F)c2ccc(N*)cc2o1; MeOSuc = COC(=O)CCC(=O)*; Cbz = O=C(OCc1ccccc1)*

Legend:
[1] = tested on: purified Taenia solium cysteine protease; assay: Substrate cleavage screen of AFC-linked synthetic substrates (Step II), purified protease; type: biochemical; conditions: 1 ug purified protease, 1 ug substrate, Citrate pH 4.9 with 0.01 M cysteine, 18 h, 37 °C
Description: In this step, the most efficacious substrate for detection of the cysteine protease (high Kcat substrate) was determined in vitro along with those substrates which were not well cleaved (low kcat substrates). From this point forth, the following conditions refer to all assays: "assay buffer" refers to 0.4 M Citrate, pH 4.9 (the pH optima of the protease). Incubation time was 18 hours at 37°C. These conditions were determined by our preliminary data to be best for kinetic evaluation of the protease. […] The experiments were conducted in […] Borosilicate mini-culture tubes (Fisher Scientific), and a fluorometer (Turner) was employed for detection of AFC cleavage.
Approximately 1 ug (or a proteolytically detectable amount) of the purified target cysteine protease was incubated individually, with 1 ug of each of the available substrates in 500 uL of assay buffer. During this setup, the substrate was pre-incubated in the assay buffer for a short period of time (20 minutes) in order to reach an equilibrated status before the addition of the protease. Cleavage assessments were based upon the property of the protease to cleave synthetic peptide substrates linked at the C-terminus to 7-Amino-4-Trifluoromethyl Coumarin (AFC) as previously described. AFC linked tripeptides, dipeptides, and monopeptides, (with a variety of permutations at P3-P1) were available from Enzyme Systems Products (Livermore, CA), and were used as the source of the subset. Following incubation of enzyme preparations overnight (18 h, 37 °C) with peptide in assay buffer (Citrate, pH 4.9, supplemented with 0.01 M cysteine), free AFC concentrations were measured fluorometrically (excitation 405 nm, emission 505 nm). The proteolytic cleavage released the AFC group, which was measurable as a free molecule by a standard fluorometer and converted into molar quantities, based upon a previously established standard curve. The simplicity of AFC detection by the fluorometer was a key factor which quickened and simplified the procedures.
In the assay, 1 ug of the purified Taenia cysteine protease was added to a saturating amount of Z-Phe-Arg-AFC (4X10^-5 M) in assay buffer. The experiment was conducted in triplicate and repeated at least 5 times until we were certain that variability in AFC cleavage was not statistically significant.
Vmax was calculated for the cleavage of substrates by the purified target protease and Vmax was calculated for substrates cleaved by the crude mix protease using conventional kinetic modeling calculations already described in the art.

[2] = tested on: purified Taenia solium cysteine protease; assay: Competitor assay of low Vmax substrates (vehicles) against high Vmax substrate cocktails (Step III), purified protease; type: biochemical; conditions: purified protease; for inhibition in the presence of the 1.4% cocktail: 1.4% cocktail = Z-FR-AFC 1X10^-6M; for inhibition with the final cocktail (7.4%): 7.4% cocktail = Z-FR-AFC + Z-FAR-AFC + Z-AAK-AFC + AP-AFC + Z-VLR-AFC, 1X10^-6 M each, vehicle 8X10^-6 M
Description: (We employed "Vmax" here although Kcat could also be used). Due to the lower number of substrates, a percentage was not chosen for the "BOTTOM %" " substrates. Alternately, all substrates which were not cleaved as determined by a value of 10 uM/hr or less, were chosen to be tested in this step for competitive ability. From this point forth, the term "vehicle" will represent low Vmax substrates that were capable of inhibiting cleavage of the percent cocktails. In this instance, we tested for "vehicles" which inhibited cleavage of the TOP 1.4% cocktail (they were delivered into the active site). Based upon our results from Step II, the top 1.4% cocktail was composed of Z-Phe-Arg-AFC, the highest cleaved substrate.
(§1) The experiment began with a competitor test between the noncleaved low Vmax substrates and the highest Vmax substrate, Z-Phe-Arg-AFC. Concentrations were varied between the low Vmax substrate and Z-Phe-Arg-AFC, as described above under "refinement of assay" until a relative inhibition profile was obtained.
The mixture was allowed to equilibrate for a period of 30 minutes. Finally, active purified enzyme was added to the tubes at a concentration which was always 50 times less than the concentration of the high and low Vmax substrates, in order to insure saturation conditions. This concentration varied from purification to purification and the amount added depended upon the yield and specific activity of the purified protease.
Positive controls were set up similarly as described for test controls, except that solvent was added in substitution for the low Vmax substrate (in a volume equal to the low Vmax volume addition). All of the substrates could be dissolved in dimethylsulfoxide (DMSO), and therefore, this was the solvent of choice. Negative controls were set up by adding the low Vmax and the high Vmax substrate in a tube without the protease. All potential non-proteolytic induced liberation of AFC was therefore controlled for in this tube (a feature which also insured stability of the AFC substrates, since these substrates will freely liberate AFC when unstable). A tube set will be established for this negative control.
All controls were set up in triplicate, and experiments repeated a minimum of five times. The assays were incubated at 37°C, for 18 hours overnight.
(§2) Percent inhibition was calculated as: %Inhibition =; ((AFC positive for"Y"-AFC negative for"Y")-(AFC test-AFC negative for"Y")X100)/(AFC positive for "Y"-AFC negative for "Y") [formula]
A 2.9% cocktail of the high Vmax substrates was made. This was composed of Z-FR-AFC and the second most cleaved substrate, Z-FAR-AFC. The vehicles promoted from the initial screenings above were again tested for competitive inhibition ability with the new cocktails. Their concentrations were set identically to those which were "fixed" in the previous protocols. In other words, 8X10^-6M of the vehicle was added to the culture tube with 1X10^-6 M of Z-FR-AFC and 1X10^-6 M of Z-FAR-AFC. Active protease was added last at a concentration that was 50 times less than the concentration of the high Vmax substrate (to ensure saturating conditions).
In similar experimental fashion, a 4.4%, 5.9%, and 7.4% cocktail were tested with each of the promising vehicles. Each percentage point represented an increase by one substrate. Each of the individual components in the cocktail were added at 1X10^-6 M each, to 8X10^-6 M of the vehicle. The composition of the cocktails was as follows: 4.4% cocktail: Z-FR-AFC, Z-FAR-AFC, and Z-AAK-AFC (third highest cleaved substrate); 5.9% cocktail: Z-FR-AFC, Z-FAR-AFC, Z-AAK-AFC, and AP-AFC (fourth highest cleaved substrate); 7.4% cocktail: […], Z-FAR-AFC, Z-AAK-AFC, AP-AFC, and Z-VLR-AFC. We stopped at this number of substrates in the cocktail, since confidence was obtained that inhibitory potential of vehicles could be "diluted out."
Finally, a manageable set of candidate vehicles was determined. […]

[3] = tested on: purified Taenia solium cysteine protease; assay: Inhibition assay of protease inactivators against the high Vmax cocktail, EC100 and Ki ranking (Step VII B); type: biochemical
From the text: Once the protease inactivators were synthesized in the organic laboratory, they were to be tested for the lowest efficacious concentrations at which they induced 100% inhibition of the target protease (EC100). The top percent cocktail that was employed in the final vehicle selection step of Step III was employed as the source of competition for the inhibitors. In this case, this was the […] which was comprised of Z-FR-AFC, Z-FAR-AFC, Z-AP-AFC, Z-AAK-AFC, and Z-VLR-AFC. The final result would be a ranking of transition state candidate protease inactivators with a high ranking directly correlating to a low EC100 value. The following steps describe the assay:
Step A: Initial Screening. To set up the test control, each protease inactivator was first incubated with the […] (which provided the final differentiation of vehicles in Step III). To begin with, the protease inactivator was incubated at a concentration of 3 X 10^-9M in 500 ul of assay buffer ([…], pH 4.9 supplemented with 10mM L-cysteine). This concentration was determined, after a series of inhibitor dilutions identified, to be the best inhibitor concentration at which a differentiation in inhibitor potential could be noted. Next, a concentration equal to 4 X 10^-5M for each of the individual cocktail components, was added to the mix. The components were allowed to equilibrate for a period of 30 minutes. Finally, active purified enzyme was added to the tubes at a concentration which was always at least 50 times less than the concentration of the lowest concentration in the mix (to provide saturating conditions.) This concentration varied from purification to purification and the amount added depended upon the yield and specific activity of the purified protease.
Positive controls were set up similarly as described for test controls, except that solvent was added in substitution for the protease inactivator (in a volume equal to the […] volume addition). All of the protease inactivators could be dissolved in dimethylsulfoxide (DMSO), and therefore, this was the solvent of choice. Negative controls were set up by adding the protease inactivator and the cocktail substrates in a tube, without the protease. All potential non-proteolytic induced liberation of AFC was therefore controlled for in this tube (a feature which also insured stability of the AFC substrates, since these substrates will freely liberate AFC when unstable).
All controls were set up in triplicate, and experiments repeated a minimum of five times. The assays were incubated at 37°C, overnight. Percent inhibition was calculated as: % Inhibition = ((AFC positive for ʺSIʺ-AFC negative for ʺSIʺ)-(AFC test-AFC negative for ʺSIʺ))/(AFC positive for ʺSIʺ-AFC negative for ʺSIʺ) × 100 [formula]
Because of this, a dilution study was required in order to determine a viable ranking. Thus, the concentration of each of the protease inactivators was lowered with a dose response setup until the most efficacious concentration for 100% inhibition (EC100) could be determined. […] The final result of the assay was a ranked candidate list of protease inactivators. A lower EC100 was attributable to a higher ranking and vice-versa.
In order to determine Ki, all of the high Vmax cocktail substrates were employed for Ki determination (since Ki of the inhibitor for the enzyme is the same regardless of the substrate). To insure the highest accuracy, Ki was to be determined upon a minimum of at least three of the high Kcat substrates. Nonlinear fitting and the Dixon plot were both employed to determine Ki of the top ranked protease inactivators. A further plot was constructed using either Eadie Hofstee as well as Hanes to determine the mode of inhibition. These methods were used in order to determine the type of inhibition.

Taenia solium crude mix = assay: Competitor assay of vehicles against high Vmax substrate cocktails (Step III), crude mix; type: biochemical
Description: Step III for a crude mix proceeds it would for a purified protease, except that Vm is used instead of kcat.
as §1, §2
One of the most intriguing findings in this experiment was that a highly similar inhibition pattern for the competitor assay was noted when the crude mix was employed as the source of the target protease. Although there were some variations in the effects of inhibitor dilution, the most highly ranked vehicles remained inhibitory consistently in comparison to the profile with the target protease. The relative profile and composition of the top tiers of vehicles was identical. Z-LLL-AFC, Z-LLY-AFC, Mu-LY-AFC, Boc-VPR-AFC, Z-SY-AFC, Z-RR-AFC, Z-FLF-AFC, Z-LGR-AFC consistently presented as the top eight vehicles (Fig. 5b), respectively, based upon their V values (Table 2). […] It was notable that the three vehicles had very similar V values. […] As was mentioned, this vehicle along with Z-LLL-AFC and Z-LLY-AFC, were consistently the most inhibitory vehicles. The V values of the most inhibitory vehicle series are shown below in Table 2. Again, a clear break between the first and second tier vehicles could be noted with the V value. Table 2. Vehicles and V value rankings.

Taenia crassiceps cysts = assay: Short-term prophylactic protection of BALB/c mice from cysticercosis infection; type: in vivo; conditions: pre-injected two days, 10 T. crassiceps cysts/mouse, dosed daily for four weeks, cysts counted after one month, versus untreated controls

Q: How did the “cleavage of AFC-linked substrate (Vmax)” value [1] turn out when `N[C@@H](CCC(=O)O)C(=O)N[C@@H](Cc1ccc(O)cc1)C(=O)Nc1ccc2c(C(F)(F)F)cc(=O)oc2c1` [EY-AFC, reference compound] (H-Glu-Tyr-{AFC}) was run?
A: The value was “not cleaved”.

Q: How did the “cleavage of AFC-linked substrate (Vmax)” value [1] turn out when `COC(=O)CCC(=O)N[C@@H](Cc1ccccc1)C(=O)N[C@@H](CC(C)C)C(=O)N[C@@H](Cc1ccccc1)C(=O)Nc1ccc2c(C(F)(F)F)cc(=O)oc2c1` [MeoSuc-FLF-AFC, reference compound] (MeOSuc-Phe-Leu-Phe-{AFC}) was run?
A: Its value is “not cleaved”.

Q: `CC(C)C[C@H](NC(=O)OCc1ccccc1)C(=O)NCC(=O)N[C@@H](CCCNC(=N)N)C(=O)Nc1ccc2c(C(F)(F)F)cc(=O)oc2c1` [Z-LGR-AFC, Z-Leu-Gly-Arg-AFC] (Cbz-Leu-Gly-Arg-{AFC}) was tested. Which “inhibition in the presence of the 1.4% cocktail” value ([2]; vehicle 8X10^-6M) did it give?
A: The value was “greater than 20%”.

Q: What about the “inhibition with the final cocktail (7.4%)” value [2] of the same compound?
A: Its value is “less than 20%”.

Q: What about the “cleavage of AFC-linked substrate (Vmax)” value [1] of the same compound?
A: The value was “noncleavable”.

Q: Which “ranking of protease inactivators by EC100” value ([3]; dilution study, nanomolar levels) does the source give for `CC(C)C[C@@H](/C=C/S(C)(=O)=O)NC(=O)[C@H](CC(C)C)NC(=O)[C@H](CC(C)C)NC(=O)OCc1ccccc1` [Z-LLL-VS, Z-Leu-Leu-Leu-vinylsulfone] here?
A: Its value is “top inhibitors”.

Q: Which “inhibition in the presence of the 1.4% cocktail” value ([2]; vehicle 8X10^-6M) does the source give for `CC(C)C[C@H](NC(=O)OCc1ccccc1)C(=O)N[C@@H](CCCNC(=N)N)C(=O)N[C@@H](CCCNC(=N)N)C(=O)Nc1ccc2c(C(F)(F)F)cc(=O)oc2c1` [Z-LRR-AFC] (Cbz-Leu-Arg-Arg-{AFC}) here?
A: Its value is “greater than 20%”.

Q: How did the “inhibition with the final cocktail (7.4%)” value [2] turn out when `N=C(N)NCCC[C@H](NC(=O)OCc1ccccc1)C(=O)N[C@@H](CCCNC(=N)N)C(=O)Nc1ccc2c(C(F)(F)F)cc(=O)oc2c1` [Z-RR-AFC] (Cbz-Arg-Arg-{AFC}) was run?
A: The value was “less than 20%”.

Q: What about the “V Value” ([2]; V = P * M, P = inhibition with first (1.4%) cocktail, M = inhibition with last (7.4%) cocktail, vehicle 8X10^-6M, each cocktail substrate 1X10^-6 M) of the same compound?
A: Its value is 0.09.

Q: And the Tier (Taenia solium crude mix)?
A: Its Tier is 2 (The second tier was composed of those vehicles, which produced inhibition between 20-50% inhibition when in the presence of the 1.4% cocktail).

Q: And the “V Value” (Taenia solium crude mix; V = P * M)?
A: The value was 0.09.

Q: Which “% Inhibition of T. solium CP in vitro” value ([3]; in vitro, concentration not stated in Table 4) does the source give for “Leu-Phe-Ketoamide-Pyridyl [K-Pyr, reference compound]” here?
A: Its value is 80%.

Q: And the “% Prophylactic protection of BALB/c mice” value (Taenia crassiceps cysts)?
A: Its value is 40%.
